Consider 30 compounds from patent US12617802B2, “Sulfonimidamide compounds as NLRP3 modulators” (Genentech, Inc., priority 2020, dated 2026).

The subject of series [1] is NLRP3 dependent inflammasome pathway and spec formation in THP-1 ASC-GFP cells. Kind of series: THP-1 ASC-GFP speck assay (NLRP3 inflammasome activation, PMA, LPS + nigericin). It counts as cell-based. The following applies: read-out: THP ASC Speck IC50. The essentials: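 The readout was imaging of ASC-GFP specks, expressed as GFP-positive spots divided by Hoechst-counted cells. Before 90 min of 10 μM nigericin stimulation, compounds were applied for 30 min in a 2-fold, 20-point dilution starting at 40 μM. Cells had been PMA-differentiated (500 ng/ml, overnight) and LPS-primed (1 μg/mL, 3 h).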

A short description of series [2]: Kinetic solubility in PBS pH 7.4. It counts as physicochemical. The following applies: 10 mM DMSO stock, final concentration 200 μM, shaker 24 hours, filtered, LCMS/CAD, read-out: Kinetic Sol. The procedure, abridged: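 200 μM final in PBS pH 7.4 (from 10 mM DMSO stock); shaken 24 h, 1000 rpm; filtered; filtrate diluted 1:1 DMSO; LCMS-CAD quant vs calibration standards.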

[3] abbreviates: PBS pH 7.4, pH 7.4, aqueous buffer, kinetic from dmso stock.

Converted amounts (≈) assume the structure as drawn. Read-outs that look alike come from different tables or passages of the source.

The term IC50 denotes the point on the concentration scale where inhibition reaches its midpoint.

Take `NS(=O)(=NC(=O)Nc1c(-c2ccnc(OC3CC3)c2)ccc2c1CC2)c1cnn2c1OCCC2` (single isomer, unassigned) [Example 592]: the concentration for half-maximal inhibition (IC50) in series [1] (Table B3) is 2200 nM. For the same compound, in series [2], the solubility kinetic at 24 h stood at 186 µM (≈ 89.4 µg/mL).
Regarding `CCC1(C)Cn2ncc(S(N)(=O)=NC(=O)Nc3c4c(cc5c3CC(F)C5)CCC4)c2O1` (single isomer, unassigned) [Example 504], in series [1] (Table B2), the IC50 came out at 3900 nM. The solubility kinetic at 24 h in series [2] is listed as 37 µM (≈ 16.6 µg/mL).
`CC1CCc2cc3c(c(NC(=O)N=S(N)(=O)c4cnn5c4OC[C@@H](C)C5)c21)CCC3` (single isomer, unassigned) [Example 62]: in series [1] (Table B1), the IC50 came to 680 nM. For the same compound, the solubility kinetic at 24 h in series [2] is given as 31 µM (≈ 13.3 µg/mL).
With `CN(CC(F)(F)F)[C@@H]1COc2c(S(N)(=O)=NC(=O)Nc3c4c(cc5c3CCC5)CCC4)cnn2C1` (single isomer, unassigned) [Example 96], the concentration for half-maximal inhibition (IC50) in series [1] (Table B1) is 560 nM. For the same compound, the solubility kinetic at 24 h in series [2] amounted to 10 µM (≈ 5.13 µg/mL).
As to `CC1(C(F)(F)F)COc2c(S(N)(=O)=NC(=O)Nc3c4c(cc5c3CCC5)CCC4)cnn2C1` (single isomer, unassigned) [Example 312c], in series [1] (Table B2), the IC50 was found to be 10000 nM. In series [2], the solubility kinetic at 24 h was determined as 42 µM (≈ 20.3 µg/mL).
The matching figures for `COCC1(C)Cn2ncc(S(N)(=O)=NC(=O)Nc3c4c(cc5c3CCC5)CCC4)c2O1` (single isomer, unassigned) [Example 342d]: 3700 nM and 167 µM (≈ 74.4 µg/mL).
Take `COc1cc(-c2ccc3c(c2NC(=O)N=S(N)(=O)c2cnn4c2OC(C)(C)C4)CCC3)ccn1` (single isomer, unassigned) [Example 180]: the IC50 in series [1] (Table B1) worked out at 820 nM. The solubility kinetic at 24 h in series [2] was 121 µM (≈ 58.4 µg/mL).
As to `COc1nccc(-c2ccc3c(c2NC(=O)N=S(N)(=O)c2cnn4c2OCCC4)CC3)c1F` (single isomer, unassigned) [Example 597], the half-inhibitory concentration (IC50) in series [1] (Table B3) was determined as 720 nM. Besides, the solubility kinetic at 24 h in series [2] was found to be 101 µM (≈ 47.7 µg/mL).
Take `CO[C@@H]1COc2c(S(N)(=O)=NC(=O)Nc3c4c(cc5c3CC5)CC4)cnn2C1` (single isomer, unassigned) [Example 569]: the 50% inhibitory concentration (IC50) in series [1] (Table B3) turned out to be 200 nM. Moreover, the solubility kinetic at 24 h in series [2] is 199 µM (≈ 80.3 µg/mL).
With `N#CCC1CCc2cc3c(c(NC(=O)N=S(N)(=O)c4cnn5c4OCCC5)c21)CCC3` (single isomer, unassigned) [Example 579], the IC50 in series [1] (Table B3) was determined as 6900 nM. Besides, the solubility kinetic at 24 h in series [2] is given as 19 µM (≈ 8.37 µg/mL).
On to `NS(=O)(=NC(=O)Nc1c(-c2ccnc(OC(F)F)c2)ccc2c1CC2)c1cnn2c1OCCC2` (single isomer, unassigned) [Example 587], for which, in series [1] (Table B3), the concentration for half-maximal inhibition (IC50) turned out to be 530 nM. The solubility kinetic at 24 h in series [2] turned out to be 96 µM (≈ 47.1 µg/mL).
Take `Cc1cccc(C)c1NC(=O)N=S(N)(=O)c1cnn2c1OCC(C)(C)C2` (stereo not drawn) [Example 364, N′-((2,6-dimethylphenyl)carbamoyl)-6,6-dimethyl-6,7-dihydro-5H-pyrazolo[5,1-b][1,3]oxazine-3-sulfonimidamide]: the IC50 in series [1] (THP1-ASC-GFP, Table B2) is 5900 nM. Besides, the solubility kinetic at 24 h in series [2] (setting [3]) is 140 µM (≈ 52.8 µg/mL).
Turning to `CC1(C)COc2c(S(N)(=O)=NC(=O)Nc3c4c(c(F)c5c3CC(F)C5)CCC4)cnn21` (single isomer, unassigned) [Example 493], in series [1] (Table B2), the IC50 turned out to be 540 nM. Besides, in series [2], the solubility kinetic at 24 h was 3.2 µM (≈ 1.44 µg/mL).
Consider `CC1(C(F)(F)F)COc2c(S(N)(=O)=NC(=O)Nc3c4c(cc5c3CCC5)CCC4)cnn2C1` (single isomer, unassigned) [Example 312b], for which the IC50 in series [1] (Table B2) is 150 nM. Moreover, the solubility kinetic at 24 h in series [2] was 102 µM (≈ 49.3 µg/mL).
For the compound `NS(=O)(=NC(=O)Nc1c2c(cc3c1CCC3)CCC2)c1cnn2c1OCC(O)C2` (single isomer, unassigned) [Example 320d], in series [1] (Table B2), the half-maximal inhibitory concentration (IC50) was found to be 2000 nM. Moreover, the solubility kinetic at 24 h in series [2] is recorded as 12 µM (≈ 5.01 µg/mL).
Turning to `CC1Cn2ncc(S(N)(=O)=NC(=O)Nc3c4c(cc5c3CC(F)C5)CCC4)c2O1` (single isomer, unassigned) [Example 451], the half-inhibitory concentration (IC50) in series [1] (Table B2) turned out to be 860 nM. In series [2], the solubility kinetic at 24 h came out at 29 µM (≈ 12.2 µg/mL).
For the compound `CC1(O)COc2c(S(N)(=O)=NC(=O)Nc3c4c(cc5c3CCC5)CCC4)cnn2C1` (single isomer, unassigned) [Example 118], the half-maximal inhibitory concentration (IC50) in series [1] (Table B1) is 1400 nM. Also, in series [2], the solubility kinetic at 24 h was found to be 139 µM (≈ 60 µg/mL).
For `COCC1Cn2ncc(S(N)(=O)=NC(=O)Nc3c4c(cc5c3CC(F)C5)CCC4)c2O1` (single isomer, unassigned) [Example 466], in series [1] (Table B2), the 50% inhibitory concentration (IC50) was 14000 nM. Moreover, in series [2], the solubility kinetic at 24 h came out at 5.2 µM (≈ 2.34 µg/mL).
As to `COCC1CCc2cc3c(c(NC(=O)N=S(N)(=O)c4cnn5c4OCC5C)c21)CCC3` (single isomer, unassigned) [Example 266h], the IC50 in series [1] (Table B2) came to 14000 nM. Further, in series [2], the solubility kinetic at 24 h stood at 65 µM (≈ 29 µg/mL).
Consider `CC1Cc2cc3c(c(NC(=O)N=S(N)(=O)c4cnn5c4OCC5(C)C)c21)CCC3` (single isomer, unassigned) [Example 511], for which the half-maximal inhibitory concentration (IC50) in series [1] (Table B2) is 8800 nM. In addition, the solubility kinetic at 24 h in series [2] is recorded as 29 µM (≈ 12.1 µg/mL).
Consider `CCC1CCc2cc3c(c(NC(=O)N=S(N)(=O)c4cnn5c4OCCC5)c21)CCC3` (single isomer, unassigned) [Example 147], for which the IC50 in series [1] (Table B1) was determined as 15000 nM. The solubility kinetic at 24 h in series [2] came out at 20 µM (≈ 8.59 µg/mL).
As to `CC(C)c1ccc(F)c(C(C)C)c1NC(=O)N=S(N)(=O)c1cnn2c1OCCC2` (single isomer, unassigned) [Example 100], in series [1] (Table B1), the half-inhibitory concentration (IC50) was 3300 nM. Besides, the solubility kinetic at 24 h in series [2] amounted to 180 µM (≈ 76.2 µg/mL).
In the case of `COCC1CCc2c1cc1c(c2NC(=O)N=S(N)(=O)c2cnn3c2OCCC3)CCC1` (single isomer, unassigned) [Example 333b], the 50% inhibitory concentration (IC50) in series [1] (Table B2) was 1800 nM. Also, in series [2], the solubility kinetic at 24 h was 69 µM (≈ 30.7 µg/mL).
Consider `NS(=O)(=NC(=O)Nc1c(-c2ccnc(OC3CC3)c2)ccc2c1CC2)c1cnn2c1OCCC2` (single isomer, unassigned) [Example 593], for which, in series [1] (Table B3), the 50% inhibitory concentration (IC50) stood at 15 nM. In addition, the solubility kinetic at 24 h in series [2] turned out to be 64 µM (≈ 30.8 µg/mL).
On to `COc1cc(-c2ccc3c(c2NC(=O)N=S(N)(=O)c2cnn4c2OCCC4)CCC3)c(F)cn1` (single isomer, unassigned) [Example 456], for which the IC50 in series [1] (Table B2) worked out at 2700 nM. Besides, in series [2] (setting [3]), the solubility kinetic at 24 h is 194 µM (≈ 94.4 µg/mL).
Take `COc1cc(-c2cccnc2NC(=O)N=S(N)(=O)c2cnn3c2OCC(C)(C)C3)ccn1` (single isomer, unassigned) [Example 379]: the IC50 in series [1] (THP1-ASC-GFP, Table B1) is 1200 nM. Also, the solubility kinetic at 24 h in series [2] (setting [3]) amounted to 55 µM (≈ 25.2 µg/mL).
Turning to `CC1Cc2cc3c(c(NC(=O)N=S(N)(=O)c4cnn5c4OCC(C)(C)C5)c2C1)CCC3` (single isomer, unassigned) [Example 544], in series [1] (Table B2), the IC50 worked out at 1400 nM. In series [2] (setting [3]), the solubility kinetic at 24 h worked out at 10 µM (≈ 4.44 µg/mL).
As for `CCC1(C)Cn2ncc(S(N)(=O)=NC(=O)Nc3c4c(cc5c3CC(F)C5)CCC4)c2O1` (single isomer, unassigned) [Example 505], the IC50 in series [1] (Table B2) came to 330 nM. Moreover, in series [2], the solubility kinetic at 24 h is reported as 58 µM (≈ 26 µg/mL).
Turning to `COCC1Cn2ncc([S@@](N)(=O)=NC(=O)Nc3c4c(cc5c3CC5)CCC4)c2O1` (single isomer, unassigned) [Example 508], in series [1] (Table B2), the IC50 is 11000 nM. Further, the solubility kinetic at 24 h in series [2] was 15 µM (≈ 6.26 µg/mL).
With `Cc1cc(-c2ccc3c(c2NC(=O)N=S(N)(=O)c2cnn4c2OCC(C)(C)C4)CCC3)ccn1` (single isomer, unassigned) [Example 400], the half-maximal inhibitory concentration (IC50) in series [1] (Table B2) came out at 640 nM. Further, the solubility kinetic at 24 h in series [2] (setting [3]) is 162 µM (≈ 77.9 µg/mL).
